{
  "source": "paper PMC12257073",
  "about": "(Cancer Research Communications, 2025)",
  "key": {"[1]": {"tested_on": "TP53-mutated AML", "conditions": "cited from earlier work"}, "[2]": {"assay": "Adverse events (treatment-related and all-cause) and dose-limiting toxicities, NCI CTCAE version 4.0", "conditions": "all treated patients, TP-0903 + decitabine", "description": "The phase 1b portion of the study used a standard 3 + 3 dose-escalation design with a starting dose level 1 (DL1) of 37 mg oral daily TP-0903 (Supplementary Table S2) based on experience with 50 mg oral daily as a single agent in patients with solid tumors ([25]). Dose-limiting toxicities (DLT) were evaluated to establish the dose brought forward for an expansion cohort (phase 2). Seven patients were enrolled in the phase 1b study, which was completed in January 2021 with the decision to move forward with an expansion cohort of 37 mg oral daily. Across the phase 1b and phase 2 studies, 15 patients were enrolled and started on 37 mg TP-0903 oral daily on days 1 to 21 (group 1). […] One additional patient was enrolled at this time but was inadvertently started on 25 mg TP-0903 oral daily on days 1 to 21. […] In May 2021, an amendment was approved to allow enrollment of a new group 2 at 25mg oral daily on days 1 to 21 of TP-0903 (DL-1) in stage 2 of the phase 2 study.\nClinical response was assessed according to the modified 2017 European LeukemiaNet AML criteria ([26]). The primary endpoint was achievement of CR within six cycles of therapy. Secondary endpoints included toxicity, duration of response, OS, and the proportion of eligible patients who effectively transitioned to allogeneic stem cell transplantation. Exploratory endpoints included pharmacokinetics (PK), correlative genetic, and biochemical data; correlations between morphologic remission, spectral flow cytometry, and mutational remission; and duration of remission or survival. […] Adverse events (AE) were graded according to the NCI Common Terminology Criteria for Adverse Events version 4.0 ([27])."}},
  "note": "Where two headings read alike, the source gives them in different places.",
  "data": [
    {"compound": "Nc1ncn([C@@H]2O[C@H](CO)[C@@H](O)[C@H]2O)c(=O)n1", "note": "[azacitidine]", "values": [
      {"measurement": "Median OS", "setting": "[1]; TP53-mutated patients, azacitidine", "value": 7.9, "unit": "months"}
    ]},
    {"compound": "Nc1ncn([C@H]2C[C@H](O)[C@@H](CO)O2)c(=O)n1", "note": "[decitabine, reference compound]", "values": [
      {"measurement": "Serious AEs related to decitabine", "setting": "[2]", "value": "only one patient had a serious AE related to decitabine (grade 3 pneumonia)"}
    ]},
    {"compound": "c1cn2cc(-c3ccc4cn[nH]c4c3)nc(Nc3ccc(N4CCOCC4)cc3)c2n1", "note": "[entospletinib]", "values": [
      {"measurement": "CR + CRi rate", "setting": "[1]; entospletinib and a 10-day course of decitabine, complex karyotype AML with a TP53 mutation", "value": 17.1, "unit": "%"},
      {"measurement": "Median OS", "setting": "[1]; entospletinib combined with decitabine, patients with mutant TP53", "value": 6.5, "unit": "months"}
    ]},
    {"compound": "COCC1(CO)C(=O)C2CCN1CC2", "note": "(stereo not drawn) [eprenetapopt]", "values": [
      {"measurement": "Median OS", "setting": "[1]; eprenetapopt combined with azacitidine", "value": "less than 1 year"},
      {"measurement": "CR rate", "setting": "[1]; eprenetapopt, mutant p53", "value": "≤ 17", "unit": "%"}
    ]},
    {"compound": "CC1(C)CCC(CN2CCN(c3ccc(C(=O)NS(=O)(=O)c4ccc(NCC5CCOCC5)c([N+](=O)[O-])c4)c(Oc4cnc5[nH]ccc5c4)c3)CC2)=C(c2ccc(Cl)cc2)C1", "note": "[venetoclax]", "values": [
      {"measurement": "Median OS", "setting": "[1]; venetoclax added to HMAs, no difference vs HMA alone", "value": "approximately 5.2 months"},
      {"measurement": "CR + CRi rate", "setting": "[1]; venetoclax added to HMAs", "value": 55, "unit": "%"},
      {"measurement": "Median OS", "setting": "[1]; venetoclax and azacitidine, TP53-mutated patients with poor-risk cytogenetics", "value": 5.2, "unit": "months"},
      {"measurement": "Median OS", "setting": "[1]; venetoclax in combination with azacitidine, older or medically unfit patients with AML", "value": "≤ 17.5", "unit": "months"},
      {"measurement": "CR + CRi rate", "setting": "[1]; venetoclax plus azacitidine, patients with mutant TP53", "value": 55, "unit": "%"}
    ]},
    {"compound": "magrolimab", "values": [
      {"measurement": "Median OS", "setting": "[1]; magrolimab and azacitidine, TP53-mutated patients", "value": 9.8, "unit": "months"}
    ]}
  ]
}
